Measurements: patent US9180215B2, “Positron emission tomography imaging method” (PURDUE RESEARCH FOUNDATION, priority 2007, dated 2015)

Target: T1, folate receptors on KB cells (Homo sapiens, UniProt P15328)
T1 construct: endogenous in cells; host or cells: KB cells
Test: Competitive binding assay using KB cells (displacement of 3H-folic acid)
Settings: competitive binding at folate receptors on KB cells, 10 nM 3H-folic acid, 37° C., 1 h
Experimental: Competitive binding assay using KB cells. Relative binding affinity of the folate-fluoro-phenyl conjugate was evaluated according to the standard literature protocol by Westerhof et. al. (Mol Pharmacol, 1995, 48, 459-471) and C. P. Leamon et. al. (Bioconjugate Chem., 2006, 17 (5), 1226-1232) with minor modification.
Then cells were rinsed three times with 250 μL of PBS (phosphate saline buffer) and one time with trichloro-acetic acid. 1% sodium dodecylsulfate (250 μL) in PBS were added to each well and after 10 min cell lysates were transferred to individual vials containing 3 mL of scintillation cocktail and radioactivity was counted.

T1 sequence (P15328 25-234): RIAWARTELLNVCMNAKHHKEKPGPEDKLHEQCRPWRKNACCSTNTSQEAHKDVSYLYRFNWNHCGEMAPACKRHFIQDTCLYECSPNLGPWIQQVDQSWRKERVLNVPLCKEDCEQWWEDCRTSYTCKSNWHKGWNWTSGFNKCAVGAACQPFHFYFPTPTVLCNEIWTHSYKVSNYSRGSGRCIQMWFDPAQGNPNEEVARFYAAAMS

Kd: 23.8 nM
SMILES: Nc1nc2ncc(CNc3ccc(C(=O)N[C@@H](CCC(=O)NCCNC(=O)CCOCCOCCOCCOCCOCCOCCNC(=O)c4ccc(F)cc4)C(=O)O)cc3)nc2c(=O)[nH]1 [compound of FIG. 1]
